Laboratory results taken from patent US20040006236A1, “Diaminopropionic acid derivatives” (priority 1999, published 2004).

Tests used:
[1] = system: cell-surface Mac-1 adhesion to immobilized fibrinogen (HL-60 cells); experiment: Mac-1/Fibrinogen cell-based screening assay; parameters: species or system human; conditions: Homo sapiens, HL-60, HL-60 cells; read-out: Mac-1/Fgn Cell based Assay IC50
Outline: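 Wells coated with fibrinogen and blocked with PVP. Labeled HL-60 cells (2×10^6 cells/mL in RPMI/0.05% BSA/0.2 mM MnCl2) preincubated with DMSO-diluted compounds for 10 min at 37° C, then left to adhere 30 min at 37° C/5% CO2. Unbound cells washed off with TBS.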

[2] = target: T1, ICAM-1 binding to immobilized Mac-1 (Homo sapiens, UniProt P05107+P11215); experiment: Mac-1/ICAM-1 screening assay (solid-phase ELISA); conditions: read-out: Mac-1/ICAM-1 Protein-Protein Assay IC50
T1 construct: made in house; host or cells: transfected 293 cells (Mac-1)
T1 sequence (P05107 23-769, other chains not shown): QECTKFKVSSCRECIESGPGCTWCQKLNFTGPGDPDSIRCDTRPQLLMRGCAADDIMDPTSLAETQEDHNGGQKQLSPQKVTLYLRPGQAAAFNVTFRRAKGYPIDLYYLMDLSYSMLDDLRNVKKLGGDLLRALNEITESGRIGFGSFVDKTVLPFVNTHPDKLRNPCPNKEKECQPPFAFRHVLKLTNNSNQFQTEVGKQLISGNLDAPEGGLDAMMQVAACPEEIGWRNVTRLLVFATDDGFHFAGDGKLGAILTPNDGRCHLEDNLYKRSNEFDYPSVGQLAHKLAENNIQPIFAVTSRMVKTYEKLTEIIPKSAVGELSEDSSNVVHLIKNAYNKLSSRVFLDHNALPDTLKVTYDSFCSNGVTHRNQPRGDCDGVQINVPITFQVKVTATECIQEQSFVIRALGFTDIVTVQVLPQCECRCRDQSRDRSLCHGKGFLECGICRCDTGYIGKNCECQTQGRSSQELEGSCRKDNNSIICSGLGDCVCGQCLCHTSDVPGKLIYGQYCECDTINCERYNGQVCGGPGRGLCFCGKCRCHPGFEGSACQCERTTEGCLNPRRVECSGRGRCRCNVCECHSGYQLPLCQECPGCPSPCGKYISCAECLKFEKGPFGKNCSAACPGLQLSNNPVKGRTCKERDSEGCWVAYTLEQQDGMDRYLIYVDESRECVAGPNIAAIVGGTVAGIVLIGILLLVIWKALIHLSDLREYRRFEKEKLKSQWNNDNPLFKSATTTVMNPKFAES
Outline: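 Competitive solid-phase ELISA: membrane Mac-1 from transfected 293 cells coated at 3 μg/mL in 20 mM Hepes pH 7.2/0.14 M NaCl/1 mM MnCl2; compounds (0.12 nM-20 μM, 1:4 series) plus 5dICAM-Ig (40 μg/mL, added) 2 h at 37° C. Bound ICAM-Ig detected with HRP anti-human IgG Fc, TMB, A450; IC50 reported.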

[3] = system: T lymphocyte proliferation (C57BI/6 spleen cells with irradiated BALB/c spleen cells); experiment: Mixed lymphocyte reaction (MLR), one-way; format: cell-based, mice; conditions: Mus musculus, T-lymphocyte; read-out: MLR IC50
Outline: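 Irradiated BALB/c spleen cells mixed with C57BI/6 spleen cells in RPMI1640/10% heat-inactivated FBS/2-mercaptoethanol, with serial antagonist dilutions; 3 days at 5% CO2. Tritiated thymidine (0.5 μCi/well) added on day 3; incorporation counted by liquid scintillation after a further 6 h.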

Row | Compound | IC50 [1] | IC50 [2] | IC50 [3]
1 | COc1cccc(C(=O)NC[C@H](NC(=O)c2ccc(C(=O)NCc3cccc(O)c3)cc2Cl)C(=O)O)c1 [Example 76, N-[2-chloro-4-[[[(3-hydroxyphenyl)methyl]amino]-carbonyl]benzoyl]-3-(3-methoxybenzoylamino)-L-alanine] | 43 nM | 6.8 nM | 310 nM
2 | O=C1CC[C@@H](C(=O)NC[C@H](NC(=O)c2ccc(C(=O)NCc3cccc(O)c3)cc2Cl)C(=O)O)O1 [Example 96] |  | 56 nM | 1300 nM
3 | O=C(NCc1cccc(O)c1)c1ccc(C(=O)N[C@@H](CNC(=O)C2CC2)C(=O)O)c(Cl)c1 [Example 97] |  | 121 nM | 1550 nM
4 | O=C(NCc1cccc(O)c1)c1ccc(C(=O)N[C@@H](CNC(=O)C2(c3ccccc3)CC2)C(=O)O)c(Cl)c1 [Example 99] |  | 50 nM | 2000 nM
5 | O=C(NCc1cccc(O)c1)c1ccc(C(=O)N[C@@H](CNC(=O)C2CCC2)C(=O)O)c(Cl)c1 [Example 100] |  | 32 nM | 705 nM
6 | O=C(NCc1cccc(O)c1)c1ccc(C(=O)N[C@@H](CNC(=O)C2CCCC2)C(=O)O)c(Cl)c1 [Example 101] | 79 nM | 29 nM | 565 nM
7 | COCCC1(C(=O)NC[C@H](NC(=O)c2ccc(C(=O)NCc3cccc(O)c3)cc2Cl)C(=O)O)CCCC1 [Example 102] |  | 50 nM | 400 nM
8 | O=C(NCc1cccc(O)c1)c1ccc(C(=O)N[C@@H](CNC(=O)C2(c3ccccc3)CCCC2)C(=O)O)c(Cl)c1 [Example 103] | 123 nM | 21 nM | 520 nM
9 | O=C(NCc1cccc(O)c1)c1ccc(C(=O)N[C@@H](CNC(=O)[C@H](CC2CCCCC2)n2cccc2)C(=O)O)c(Cl)c1 [Example 110] |  | 272 nM | 10000 nM
10 | Cc1noc(C)c1CCC(=O)NC[C@H](NC(=O)c1ccc(C(=O)NCc2cccc(O)c2)cc1Cl)C(=O)O [Example 111] |  | 44 nM | 500 nM
11 | C/C=C/C(=O)NC[C@H](NC(=O)c1ccc(C(=O)NCc2cccc(O)c2)cc1Cl)C(=O)O [Example 113] |  | 30 nM | 350 nM
12 | COc1ccc(/C=C/C(=O)NC[C@H](NC(=O)c2ccc(C(=O)NCc3cccc(O)c3)cc2Cl)C(=O)O)cc1 [Example 114] |  | 48 nM | 1650 nM
13 | O=C(/C=C/c1cccnc1)NC[C@H](NC(=O)c1ccc(C(=O)NCc2cccc(O)c2)cc1Cl)C(=O)O [Example 115] |  | 43 nM | 1350 nM
14 | O=C(NCc1cccc(O)c1)c1ccc(C(=O)N[C@@H](CNC(=O)c2ccccc2Br)C(=O)O)c(Cl)c1 [Example 120] |  | 114 nM | 890 nM
15 | O=C(NCc1cccc(O)c1)c1ccc(C(=O)N[C@@H](CNC(=O)c2ccccc2Cl)C(=O)O)c(Cl)c1 [Example 122] |  | 32 nM | 925 nM
16 | O=C(NCc1cccc(O)c1)c1ccc(C(=O)N[C@@H](CNC(=O)c2ccc(Cl)cc2)C(=O)O)c(Cl)c1 [Example 124] |  | 35 nM | 2500 nM
17 | CN(C)c1ccc(C(=O)NC[C@H](NC(=O)c2ccc(C(=O)NCc3cccc(O)c3)cc2Cl)C(=O)O)cc1 [Example 128] |  | 124 nM | 4900 nM
18 | CCOc1ccc(C(=O)NC[C@H](NC(=O)c2ccc(C(=O)NCc3cccc(O)c3)cc2Cl)C(=O)O)cc1 [Example 130] |  | 53 nM | 3000 nM
19 | COc1ccc(C(=O)NC[C@H](NC(=O)c2ccc(C(=O)NCc3cccc(O)c3)cc2Cl)C(=O)O)cc1 [Example 135] |  | 61 nM | 2640 nM
20 | Cc1ccc(C(=O)NC[C@H](NC(=O)c2ccc(C(=O)NCc3cccc(O)c3)cc2Cl)C(=O)O)cc1 [Example 139] |  | 47 nM | 1750 nM
21 | CCCCCOc1ccc(C(=O)NC[C@H](NC(=O)c2ccc(C(=O)NCc3cccc(O)c3)cc2Cl)C(=O)O)cc1 [Example 143] |  | 62 nM | 12000 nM
22 | O=C(NCc1cccc(O)c1)c1ccc(C(=O)N[C@@H](CNC(=O)c2ccccc2Oc2ccccc2)C(=O)O)c(Cl)c1 [Example 144] |  | 53 nM | 1800 nM
23 | COc1cc(C(=O)NC[C@H](NC(=O)c2ccc(C(=O)NCc3cccc(O)c3)cc2Cl)C(=O)O)cc(OC)c1OC [Example 147] |  | 119 nM | 4600 nM

Row | Compound | IC50 [1] | IC50 [2] | IC50 [3]
24 | O=C(NCc1cccc(O)c1)c1ccc(C(=O)N[C@@H](CNC(=O)c2ccc([N+](=O)[O-])o2)C(=O)O)c(Cl)c1 [Example 149] |  | 35 nM | 950 nM
25 | Cc1noc(C)c1C(=O)NC[C@H](NC(=O)c1ccc(C(=O)NCc2cccc(O)c2)cc1Cl)C(=O)O [Example 153] | 804 nM | 203 nM | 
26 | Cc1cccc(C(=O)NC[C@H](NC(=O)c2ccc(C(=O)NCc3cccc(O)c3)cc2Cl)C(=O)O)n1 [Example 163] |  | 40 nM | 1550 nM
27 | O=C(NCc1cccc(O)c1)c1ccc(C(=O)N[C@@H](CNC(=O)c2cccnc2)C(=O)O)c(Cl)c1 [Example 165] |  | 39 nM | 800 nM
28 | C[C@@H](NC(=O)c1cc(Cl)c(C(=O)N[C@@H](CNC(=O)c2cccs2)C(=O)O)c(Cl)c1)c1cccc2ccccc12 [Example 346, N-[2,6-dichloro-4-[[[(1R)-1-(1-naphthalenyl)ethyl]amino]carbonyl]benzoyl]-3-[(thiophene-2-carbonyl)amino]-L-alanine] | 4 nM |  | 68 nM
29 | C[C@@H](NC(=O)c1cc(Cl)c(C(=O)N[C@@H](CNC(=O)c2ccccc2)C(=O)O)c(Cl)c1)c1cccc2ccccc12 [Example 347] | 13.1 nM |  | 250 nM
30 | O=C(NCc1cccc(O)c1)c1cc(Cl)c(C(=O)N[C@@H](CNC(=O)c2cccc(F)c2)C(=O)O)c(Cl)c1 [Example 349] | 6.2 nM |  | 42 nM
31 | O=C(NCc1cccc(O)c1)c1cc(Cl)c(C(=O)N[C@@H](CNC(=O)c2cccc(O)c2)C(=O)O)c(Cl)c1 [Example 350] | 0.5 nM |  | 12 nM
32 | COc1ccc(C(=O)NC[C@H](NC(=O)c2c(Cl)cc(C(=O)NCc3cccc(O)c3)cc2Cl)C(=O)O)cc1O [Example 351] | 3 nM |  | 23 nM
33 | O=C(NCc1cccc(O)c1)c1cc(Cl)c(C(=O)N[C@@H](CNC(=O)c2sccc2Br)C(=O)O)c(Cl)c1 [Example 353] | 13 nM |  | 52 nM
34 | O=C(NCc1cccc(O)c1)c1cc(Cl)c(C(=O)N[C@@H](CNC(=O)c2ccc(Br)s2)C(=O)O)c(Cl)c1 [Example 354] | 12 nM |  | 203 nM
35 | Cc1ccc(C(=O)NC[C@H](NC(=O)c2c(Cl)cc(C(=O)NCc3cccc(O)c3)cc2Cl)C(=O)O)s1 [Example 358] | 6.5 nM |  | 64 nM
36 | O=C(NCc1cccc(O)c1)c1ccc(C(=O)N[C@@H](CNS(=O)(=O)c2ccccc2)C(=O)O)c(Cl)c1 [Example 360, 3-(phenylsulfonylamino)-N-[2-chloro-4-[[[(3-hydroxyphenyl)methyl]amino]carbonyl]benzoyl]-L-alanine] |  | 600 nM | 4600 nM
37 | CC(=O)Nc1nc(C)c(S(=O)(=O)NC[C@H](NC(=O)c2ccc(C(=O)N[C@H](C)c3cccc4ccccc34)cc2Cl)C(=O)O)s1 [Example 362] |  | 1530 nM | 15000 nM
38 | O=C(NCc1ccc(C(=O)N[C@@H](CNC(=O)c2ccccc2)C(=O)O)c(Cl)c1)c1cccc(O)c1 [Example 364, N-[2-chloro-4-[[(3-hydroxyphenyl)carbonyl]aminomethyl]benzoyl]-3-benzoylamino-L-alanine] |  | 167 nM | 2850 nM
39 | O=C(NC[C@H](NC(=O)c1ccc(CNC(=O)c2ccccc2O)cc1Cl)C(=O)O)c1ccccc1 [Example 365] |  | 208 nM | 9500 nM
40 | O=C(NCc1ccc(C(=O)N[C@@H](CNC(=O)c2ccccc2)C(=O)O)c(Cl)c1)c1cc(O)cc(O)c1 [Example 366] |  | 61 nM | 1400 nM
41 | O=C(NCc1ccc(C(=O)N[C@@H](CNC(=O)c2ccccc2)C(=O)O)c(Cl)c1)c1ccc2[nH]ccc2c1 [Example 368] |  | 765 nM | 3850 nM
42 | O=C(NCc1ccc(C(=O)N[C@@H](CNC(=O)c2ccccc2)C(=O)O)c(Cl)c1)c1ccc2cc[nH]c2c1 [Example 369] |  | 403 nM | 3200 nM
43 | N=C(N)NC[C@H](NC(=O)c1ccc(C(=O)NCc2cccc(O)c2)cc1Cl)C(=O)O [Example 371, N-[2-chloro-4-[[[(3-hydroxyphenyl)methyl]amino]-carbonyl]benzoyl]-3-(aminoiminomethyl)amino-L-alanine] |  | 73 nM | 3500 nM
44 | O=C(NC[C@H](NC(=O)c1ccc(/C=C/Cc2ccccc2)cc1Cl)C(=O)O)c1cccs1 [Example 373, N-[2-chloro-4-(3-phenyl-1-propenyl)benzoyl]-3-(thiophene-2-carbonyl)amino-L-alanine] |  | 68 nM | 12500 nM
45 | O=C(NC[C@H](NC(=O)c1ccc(C(=O)[C@H]2C[C@@H]2c2ccccc2)cc1Cl)C(=O)O)c1cccs1 [Example 377] |  | 160 nM | 9500 nM
46 | O=C(CCc1ccccc1)c1ccc(C(=O)N[C@@H](CNC(=O)c2cccs2)C(=O)O)c(Cl)c1 [Example 378] |  | 75 nM | 6400 nM
